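GI50 marks 50% less growth. TGI marks complete inhibition of growth.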
Columns and labels:
Test in all cases: NCI tumour cell line growth inhibition, 384-well format
ACHN renal = test system: ACHN renal
HT29 colon = test system: HT29 colon
OVCAR-4 ovarian = test system: OVCAR-4 ovarian
HCC-2998 colon = test system: HCC-2998 colon
HCT-15 colon = test system: HCT-15 colon
SK-MEL-5 melanoma = test system: SK-MEL-5 melanoma
A498 renal = test system: A498 renal
KM12 colon = test system: KM12 colon
SNB-19 CNS = test system: SNB-19 CNS
MDA-MB-231 breast = test system: MDA-MB-231 breast
NCI-H460 NSCLC = test system: NCI-H460 NSCLC
UACC-257 melanoma = test system: UACC-257 melanoma
NCI/ADR-RES ovarian = test system: NCI/ADR-RES ovarian
UO-31 renal = test system: UO-31 renal
NCI-H226 lung = test system: NCI-H226 lung
BT-549 breast = test system: BT-549 breast
HOP-92 NSCLC = test system: HOP-92 NSCLC
SK-OV-3 ovarian = test system: SK-OV-3 ovarian
SF-268 CNS = test system: SF-268 CNS
MDA-MB-435 melanoma = test system: MDA-MB-435 melanoma
PC-3 prostate = test system: PC-3 prostate
UACC-62 melanoma = test system: UACC-62 melanoma
SW-620 colon = test system: SW-620 colon
HL-60(TB) leukemia = test system: HL-60(TB) leukemia
NCI-H23 lung = test system: NCI-H23 lung
MOLT-4 leukemia = test system: MOLT-4 leukemia
LOX IMVI melanoma = test system: LOX IMVI melanoma
COLO 205 colon = test system: COLO 205 colon
786-0 renal = test system: 786-0 renal
HOP-62 NSCLC = test system: HOP-62 NSCLC
SN12C renal = test system: SN12C renal
SK-MEL-28 melanoma = test system: SK-MEL-28 melanoma
SF-539 CNS = test system: SF-539 CNS
HCT-116 colon = test system: HCT-116 colon
M14 melanoma = test system: M14 melanoma
MDA-MB-468 breast = test system: MDA-MB-468 breast
K-562 leukemia = test system: K-562 leukemia
TK-10 renal = test system: TK-10 renal
DU-145 prostate = test system: DU-145 prostate
SR leukemia = test system: SR leukemia
NCI-H522 lung = test system: NCI-H522 lung
T-47D breast = test system: T-47D breast
OVCAR-3 ovarian = test system: OVCAR-3 ovarian
OVCAR-8 ovarian = test system: OVCAR-8 ovarian
A549 NSCLC = test system: A549 NSCLC
CAKI-1 renal = test system: CAKI-1 renal
MCF7 breast = test system: MCF7 breast
NCI-H322M lung = test system: NCI-H322M lung
IGROV1 ovarian = test system: IGROV1 ovarian
SK-MEL-2 melanoma = test system: SK-MEL-2 melanoma
RPMI-8226 leukemia = test system: RPMI-8226 leukemia
OVCAR-5 ovarian = test system: OVCAR-5 ovarian
CCRF-CEM leukemia = test system: CCRF-CEM leukemia
MALME-3M melanoma = test system: MALME-3M melanoma
RXF 393 renal = test system: RXF 393 renal
U251 glioblastoma = test system: U251 glioblastoma
SF-295 CNS = test system: SF-295 CNS

Q: For `CC1(C)CCC(c2ccc(Cl)cc2)=C(CN2CCN(c3ccc(C(=O)NS(=O)(=O)c4ccc(N[C@H](CCN5CCOCC5)CSc5ccccc5)c(S(=O)(=O)C(F)(F)F)c4)cc3)CC2)C1`, which GI50 (ACHN renal) is on record?
A: 1800 nM

Q: What about the TGI (ACHN renal) of the same molecule?
A: 3200 nM

Q: And the GI50 (HT29 colon)?
A: 1840 nM

Q: And the TGI (HT29 colon)?
A: 3270 nM

Q: What about the GI50 (OVCAR-4 ovarian) of the same molecule?
A: 1270 nM

Q: What about the TGI (OVCAR-4 ovarian) of the same molecule?
A: 2790 nM

Q: What about the GI50 (HCC-2998 colon) of the same molecule?
A: 150 nM

Q: What about the TGI (HCC-2998 colon) of the same molecule?
A: 765 nM

Q: What about the GI50 (HCT-15 colon) of the same molecule?
A: 1750 nM

Q: What about the TGI (HCT-15 colon) of the same molecule?
A: 3180 nM

Q: What about the GI50 (SK-MEL-5 melanoma) of the same molecule?
A: 1660 nM

Q: What about the TGI (SK-MEL-5 melanoma) of the same molecule?
A: 3020 nM

Q: And the GI50 (A498 renal)?
A: 1160 nM

Q: And the TGI (A498 renal)?
A: 2390 nM

Q: What about the GI50 (KM12 colon) of the same molecule?
A: 1760 nM

Q: And the TGI (KM12 colon)?
A: 3230 nM

Q: What about the GI50 (SNB-19 CNS) of the same molecule?
A: 2170 nM

Q: What about the TGI (SNB-19 CNS) of the same molecule?
A: 4020 nM

Q: And the GI50 (MDA-MB-231 breast)?
A: 316 nM

Q: What about the TGI (MDA-MB-231 breast) of the same molecule?
A: 1170 nM

Q: What about the GI50 (NCI-H460 NSCLC) of the same molecule?
A: 1840 nM

Q: What about the TGI (NCI-H460 NSCLC) of the same molecule?
A: 3280 nM

Q: And the GI50 (UACC-257 melanoma)?
A: 1590 nM

Q: What about the TGI (UACC-257 melanoma) of the same molecule?
A: 3010 nM

Q: What about the GI50 (NCI/ADR-RES ovarian) of the same molecule?
A: 2800 nM

Q: What about the TGI (NCI/ADR-RES ovarian) of the same molecule?
A: 7690 nM

Q: And the GI50 (UO-31 renal)?
A: 1370 nM

Q: What about the TGI (UO-31 renal) of the same molecule?
A: 2670 nM

Q: What about the GI50 (NCI-H226 lung) of the same molecule?
A: 1100 nM

Q: What about the TGI (NCI-H226 lung) of the same molecule?
A: 2310 nM

Q: What about the GI50 (BT-549 breast) of the same molecule?
A: 1810 nM

Q: And the TGI (BT-549 breast)?
A: 3230 nM

Q: And the GI50 (HOP-92 NSCLC)?
A: 135 nM

Q: And the TGI (HOP-92 NSCLC)?
A: 771 nM

Q: And the GI50 (SK-OV-3 ovarian)?
A: 1960 nM

Q: What about the TGI (SK-OV-3 ovarian) of the same molecule?
A: 3480 nM

Q: What about the GI50 (SF-268 CNS) of the same molecule?
A: 1880 nM

Q: And the TGI (SF-268 CNS)?
A: 3360 nM

Q: What about the GI50 (MDA-MB-435 melanoma) of the same molecule?
A: 1940 nM

Q: What about the TGI (MDA-MB-435 melanoma) of the same molecule?
A: 3390 nM

Q: What about the GI50 (PC-3 prostate) of the same molecule?
A: 1740 nM

Q: What about the TGI (PC-3 prostate) of the same molecule?
A: 3120 nM

Q: And the GI50 (UACC-62 melanoma)?
A: 1800 nM

Q: What about the TGI (UACC-62 melanoma) of the same molecule?
A: 3190 nM

Q: And the GI50 (SW-620 colon)?
A: 940 nM

Q: And the TGI (SW-620 colon)?
A: 2120 nM

Q: What about the GI50 (HL-60(TB) leukemia) of the same molecule?
A: 195 nM

Q: And the TGI (HL-60(TB) leukemia)?
A: 893 nM

Q: What about the GI50 (NCI-H23 lung) of the same molecule?
A: 1730 nM

Q: And the TGI (NCI-H23 lung)?
A: 3130 nM

Q: What about the GI50 (MOLT-4 leukemia) of the same molecule?
A: 22.1 nM

Q: And the TGI (MOLT-4 leukemia)?
A: 64 nM

Q: What about the GI50 (LOX IMVI melanoma) of the same molecule?
A: 1950 nM

Q: And the TGI (LOX IMVI melanoma)?
A: 3370 nM

Q: What about the GI50 (COLO 205 colon) of the same molecule?
A: 1250 nM

Q: And the TGI (COLO 205 colon)?
A: 2510 nM

Q: And the GI50 ([…]-0 renal)?
A: 1620 nM

Q: What about the TGI (786-0 renal) of the same molecule?
A: 3030 nM

Q: And the GI50 (HOP-62 NSCLC)?
A: 2030 nM

Q: What about the TGI (HOP-62 NSCLC) of the same molecule?
A: 3490 nM

Q: What about the GI50 (SN12C renal) of the same molecule?
A: 2130 nM

Q: What about the TGI (SN12C renal) of the same molecule?
A: 3590 nM

Q: And the GI50 (SK-MEL-28 melanoma)?
A: 1930 nM

Q: What about the TGI (SK-MEL-28 melanoma) of the same molecule?
A: 3390 nM

Q: What about the GI50 (SF-539 CNS) of the same molecule?
A: 1720 nM

Q: What about the TGI (SF-539 CNS) of the same molecule?
A: 3110 nM

Q: And the GI50 (HCT-116 colon)?
A: 1600 nM

Q: And the TGI (HCT-116 colon)?
A: 2990 nM

Q: And the GI50 (M14 melanoma)?
A: 1830 nM

Q: And the TGI (M14 melanoma)?
A: 3240 nM

Q: And the GI50 (MDA-MB-468 breast)?
A: 1590 nM

Q: And the TGI (MDA-MB-468 breast)?
A: 3080 nM

Q: And the GI50 (K-562 leukemia)?
A: 1940 nM

Q: What about the TGI (K-562 leukemia) of the same molecule?
A: 3350 nM

Q: What about the GI50 (TK-10 renal) of the same molecule?
A: 1660 nM

Q: And the TGI (TK-10 renal)?
A: 3050 nM

Q: What about the GI50 (DU-145 prostate) of the same molecule?
A: 2300 nM

Q: And the TGI (DU-145 prostate)?
A: 4790 nM

Q: What about the GI50 (SR leukemia) of the same molecule?
A: 365 nM

Q: What about the TGI (SR leukemia) of the same molecule?
A: 2040 nM

Q: And the GI50 (NCI-H522 lung)?
A: 1850 nM

Q: What about the TGI (NCI-H522 lung) of the same molecule?
A: 3650 nM

Q: And the GI50 (T-47D breast)?
A: 1870 nM

Q: And the TGI (T-47D breast)?
A: 3520 nM

Q: What about the GI50 (OVCAR-3 ovarian) of the same molecule?
A: 1560 nM

Q: And the TGI (OVCAR-3 ovarian)?
A: 2900 nM

Q: And the GI50 (OVCAR-8 ovarian)?
A: 1750 nM

Q: And the TGI (OVCAR-8 ovarian)?
A: 3140 nM

Q: What about the GI50 (A549 NSCLC) of the same molecule?
A: 1630 nM

Q: What about the TGI (A549 NSCLC) of the same molecule?
A: 3120 nM

Q: And the GI50 (CAKI-1 renal)?
A: 2020 nM

Q: And the TGI (CAKI-1 renal)?
A: 3460 nM

Q: What about the GI50 (MCF7 breast) of the same molecule?
A: 1880 nM

Q: And the TGI (MCF7 breast)?
A: 4580 nM

Q: What about the GI50 (NCI-H322M lung) of the same molecule?
A: 1880 nM

Q: And the TGI (NCI-H322M lung)?
A: 3670 nM

Q: And the GI50 (IGROV1 ovarian)?
A: 1560 nM

Q: What about the TGI (IGROV1 ovarian) of the same molecule?
A: 2990 nM

Q: And the GI50 (SK-MEL-2 melanoma)?
A: 1230 nM

Q: And the TGI (SK-MEL-2 melanoma)?
A: 2480 nM

Q: And the GI50 (RPMI-8226 leukemia)?
A: 82.1 nM

Q: What about the TGI (RPMI-8226 leukemia) of the same molecule?
A: 207 nM

Q: What about the GI50 (OVCAR-5 ovarian) of the same molecule?
A: 1460 nM

Q: And the TGI (OVCAR-5 ovarian)?
A: 2840 nM

Q: And the GI50 (CCRF-CEM leukemia)?
A: 69.8 nM

Q: What about the TGI (CCRF-CEM leukemia) of the same molecule?
A: 198 nM

Q: What about the GI50 (MALME-3M melanoma) of the same molecule?
A: 1870 nM

Q: What about the TGI (MALME-3M melanoma) of the same molecule?
A: 3270 nM

Q: And the GI50 (RXF 393 renal)?
A: 17.4 nM

Q: And the TGI (RXF 393 renal)?
A: 325 nM

Q: What about the GI50 (U251 glioblastoma) of the same molecule?
A: 1910 nM

Q: And the TGI (U251 glioblastoma)?
A: 3390 nM

Q: What about the GI50 (SF-295 CNS) of the same molecule?
A: 1750 nM

Q: What about the TGI (SF-295 CNS) of the same molecule?
A: 3140 nM

— PubChem BioAssay (NCI)
